Test results from patent publication EP4635500A1, “THERAPEUTIC AGENT FOR BACTERIAL INFECTION” (Sumitomo Pharma Co., Ltd., priority 2022, dated 2024).
Like-named read-outs stand apart in the source and are kept apart here.

Columns and labels:
[1] = test system: Bacteroides spp.; experiment: MIC, agar dilution, anaerobic bacteria (Example 9, Tables 17, 22); assay type: cell-based; settings: (n)=Compound A µg/mL, 0=Compound A alone antibacterial
[2] = mouse, in vivo
[3] = test system: carbapenemase-producing Enterobacteriaceae (CPE); experiment: MIC with human plasma or human serum albumin added (Example 12, Table 28); assay type: cell-based
[4] = test system: Escherichia coli; experiment: MIC and MBC, broth microdilution (Example 4, Table 3); assay type: cell-based; settings: for MBC: read-out: MBC; for MIC: read-out: MIC
[5] = ATCCBAA2340, Escherichia coli ATCC BAA-2340 (KPC-3)
[6] = ATCCBAA2469, Escherichia coli ATCC BAA-2469 (NDM-1)
[7] = Escherichia coli NCTC13476 (IMP-1)

C[C@@H](O)[C@H]1C(=O)N2C(C(=O)O)=C(S[C@@H]3CN[C@H](C(=O)N(C)C)C3)[C@H](C)[C@H]12 [MEPM, meropenem]
0.015 µg/mL: MIC ([3]; Escherichia coli, ATCC25922, read-out: MICs of MEPM, E. coli ATCC 25922 (quality control strain), Albumin 0% (standard condition))
0.12 µg/mL: MIC ([1]; KUB No. 6481 Bacteroides fragilis) | MIC ([1]; KUB No. 6483 Bacteroides fragilis) | MIC ([1]; KUB No. 6486 Bacteroides fragilis) | MIC ([1]; KUB No. 6496 Bacteroides fragilis) | MIC ([1]; KUB No. 6497 Bacteroides vulgatus) | MIC ([1]; KUB No. 6535 Bacteroides fragilis)
16 µg/mL: MIC ([1]; KUB No. 6491 Bacteroides fragilis) | MIC ([1]; KUB No. 6502 Bacteroides fragilis) | MIC ([3]; Escherichia coli, ATCCBAA2469, read-out: MICs of MEPM, E. coli ATCC BAA-2469 (NDM-1), Albumin 4%) | MIC ([3]; Klebsiella pneumoniae, ATCCBAA2342, read-out: MICs of MEPM, K. pneumoniae ATCC BAA-2342 (KPC-3), Albumin 0% (standard condition)) | MIC ([3]; Klebsiella pneumoniae, ATCCBAA2342, read-out: MICs of MEPM, K. pneumoniae ATCC BAA-2342 (KPC-3), Plasma 20%) | MIC ([3]; Klebsiella pneumoniae, ATCCBAA2342, read-out: MICs of MEPM, K. pneumoniae ATCC BAA-2342 (KPC-3), Plasma 50%) | MIC ([3]; Klebsiella pneumoniae, ATCCBAA2344, read-out: MICs of MEPM, K. pneumoniae ATCC BAA-2344 (KPC-2), Albumin 0% (standard condition)) | MIC ([3]; Klebsiella pneumoniae, ATCCBAA2344, read-out: MICs of MEPM, K. pneumoniae ATCC BAA-2344 (KPC-2), Plasma 20%) | MIC ([3]; Klebsiella pneumoniae, ATCCBAA2344, read-out: MICs of MEPM, K. pneumoniae ATCC BAA-2344 (KPC-2), Plasma 50%) | MIC ([3]; Klebsiella pneumoniae, ATCCBAA2470, read-out: MICs of MEPM, K. pneumoniae ATCC BAA-2470 (NDM-1), Albumin 0% (standard condition))
0.03 µg/mL: MIC ([3]; Escherichia coli, ATCC25922, read-out: MICs of MEPM, E. coli ATCC 25922 (quality control strain), Albumin 4%) | MIC ([3]; Escherichia coli, ATCC25922, read-out: MICs of MEPM, E. coli ATCC 25922 (quality control strain), Plasma 20%) | MIC ([3]; Escherichia coli, ATCC25922, read-out: MICs of MEPM, E. coli ATCC 25922 (quality control strain), Plasma 50%)
≥ 40%: %fT > 8 µg/mL [2]
0.5 µg/mL: MIC ([1]; KUB No. 6503 Bacteroides thetaiotaomicron) | MIC ([3]; Escherichia coli, ATCCBAA2340, read-out: MICs of MEPM, E. coli ATCC BAA-2340 (KPC-3), Plasma 50%) | MIC ([3]; Escherichia coli, NCTC13476, read-out: MICs of MEPM, E. coli NCTC 13476 (IMP-1), Plasma 50%) | MIC ([3]; Klebsiella pneumoniae, ATCCBAA2470, read-out: MICs of MEPM, K. pneumoniae ATCC BAA-2470 (NDM-1), Plasma 20%) | MIC ([3]; Klebsiella pneumoniae, ATCCBAA2470, read-out: MICs of MEPM, K. pneumoniae ATCC BAA-2470 (NDM-1), Plasma 50%) | MIC ([3]; Klebsiella pneumoniae, ATCCBAA2524, read-out: MICs of MEPM, K. pneumoniae ATCC BAA-2524 (OXA-48), Albumin 4%)
8 µg/mL: MIC ([1]; KUB No. 6485 Bacteroides vulgatus) | MIC ([3]; Klebsiella pneumoniae, ATCCBAA2470, read-out: MICs of MEPM, K. pneumoniae ATCC BAA-2470 (NDM-1), Albumin 4%) | MBC [4, 5] | MBC [4, 7]
≤ 0.12 µg/mL: MIC ([3]; Escherichia coli, ATCCBAA2469, read-out: MICs of MEPM, E. coli ATCC BAA-2469 (NDM-1), Plasma 20%) | MIC ([3]; Escherichia coli, ATCCBAA2469, read-out: MICs of MEPM, E. coli ATCC BAA-2469 (NDM-1), Plasma 50%) | MIC ([3]; read-out: MICs of MEPM, K pneumoniae NCTC13439 (VIM-1), Plasma 20%) | MIC ([3]; read-out: MICs of MEPM, K pneumoniae NCTC13439 (VIM-1), Plasma 50%)
32 µg/mL: MIC ([3]; Escherichia coli, ATCCBAA2469, read-out: MICs of MEPM, E. coli ATCC BAA-2469 (NDM-1), Albumin 0% (standard condition)) | MIC ([3]; Klebsiella pneumoniae, ATCCBAA2342, read-out: MICs of MEPM, K. pneumoniae ATCC BAA-2342 (KPC-3), Albumin 4%) | MIC ([3]; Klebsiella pneumoniae, ATCCBAA2344, read-out: MICs of MEPM, K. pneumoniae ATCC BAA-2344 (KPC-2), Albumin 4%) | MBC [4, 6] | MIC [4, 6]
1 µg/mL: MIC ([1]; KUB No. 6511 Bacteroides salyersiae) | MIC ([1]; KUB No. 6544 Bacteroides vulgatus) | MIC ([1]; KUB No. 6556 Bacteroides vulgatus) | MIC ([3]; Escherichia coli, NCTC13476, read-out: MICs of MEPM, E. coli NCTC 13476 (IMP-1), Plasma 20%) | MIC ([3]; Klebsiella pneumoniae, ATCCBAA2524, read-out: MICs of MEPM, K. pneumoniae ATCC BAA-2524 (OXA-48), Albumin 0% (standard condition))
4 µg/mL: MIC ([1]; KUB No. 6506 Bacteroides thetaiotaomicron) | MIC ([1]; KUB No. 6523 Bacteroides fragilis) | MIC ([1]; KUB No. 6525 Bacteroides fragilis) | MIC ([1]; KUB No. 6527 Bacteroides thetaiotaomicron) | MIC ([3]; Escherichia coli, ATCCBAA2340, read-out: MICs of MEPM, E. coli ATCC BAA-2340 (KPC-3), Albumin 0% (standard condition)) | MIC ([3]; Escherichia coli, ATCCBAA2340, read-out: MICs of MEPM, E. coli ATCC BAA-2340 (KPC-3), Albumin 4%) | MIC ([3]; Escherichia coli, ATCCBAA2340, read-out: MICs of MEPM, E. coli ATCC BAA-2340 (KPC-3), Plasma 20%) | MIC ([3]; Escherichia coli, NCTC13476, read-out: MICs of MEPM, E. coli NCTC 13476 (IMP-1), Albumin 0% (standard condition)) | MIC ([3]; Escherichia coli, NCTC13476, read-out: MICs of MEPM, E. coli NCTC 13476 (IMP-1), Albumin 4%) | MIC ([3]; Klebsiella pneumoniae, ATCCBAA2524, read-out: MICs of MEPM, K. pneumoniae ATCC BAA-2524 (OXA-48), Plasma 50%) | MIC ([3]; read-out: MICs of MEPM, K pneumoniae NCTC13439 (VIM-1), Albumin 0% (standard condition)) | MIC [4, 5] | MIC [4, 7]
2 µg/mL: MIC ([1]; KUB No. 6515 Bacteroides thetaiotaomicron) | MIC ([1]; KUB No. 6530 Bacteroides thetaiotaomicron) | MIC ([1]; KUB No. 6545 Bacteroides thetaiotaomicron) | MIC ([3]; Klebsiella pneumoniae, ATCCBAA2524, read-out: MICs of MEPM, K. pneumoniae ATCC BAA-2524 (OXA-48), Plasma 20%) | MIC ([3]; read-out: MICs of MEPM, K pneumoniae NCTC13439 (VIM-1), Albumin 4%)
0.25 µg/mL: MIC ([1]; KUB No. 6484 Bacteroides fragilis) | MIC ([1]; KUB No. 6493 Bacteroides thetaiotaomicron) | MIC ([1]; KUB No. 6504 Bacteroides caccae) | MIC ([1]; KUB No. 6513 Bacteroides fragilis) | MIC ([1]; KUB No. 6522 Bacteroides fragilis)
0.06 µg/mL: MIC ([1]; KUB No. 6518 Bacteroides fragilis)
64 µg/mL: MIC ([1]; KUB No. 6490 Bacteroides fragilis)
> 512 µg/mL: MIC ([1]; KUB No. 6509 Bacteroides fragilis)
